This note sets out measurements from patent publication US20050181467A1, “ATP extraction method” (priority 2000, published 2005).

In this experiment the target is luciferase (Photinus pyralis, UniProt P08659). The experiment is described as follows: ATP-luciferin-luciferase assay (light intensity, luminometer). Type of experiment: biochemical, firefly. The following applies: for effect on light intensity: diluted concentrations compared with the positively charged extractant, 5; for neutralizing the inhibitory effect(s) of commonly employed extractants on the ATP-luciferin-luciferase light reaction: overall conclusion, SDS at the proper concentrations. Here is the method: ATP-luciferin-luciferase assays were conducted to determine the effect of the following on assay activity: (1) Tween® 20 (2% Tween® 20 in 50 mM tricene buffer, pH 6.75), (2) MgSO4 (0.229 g/L in 50 mM tricene buffer, pH 7.46), (3) SDS (0.268 g/L in 50 mM tricene buffer, pH 7.61) and (4) a combination of MgSO4 and various amounts of Tween®. Each of these substances were assayed alone and in the presence of a commonly used positively charged ATP extractant, i.e., benzalkonium chloride (0.3325 g/L). Many of the assays were conducted in the presence of the following sanitizers: Ster-Bac® (1 oz/4 gal); Ster-Bac® (2.5 ml/L); XY-12 (200 ppm); XY-12 (600 ppm); Simplex Quat (1 oz/gal); Kleer-Mor® (1 oz/2 gal); and Kleer-Mor® (4 oz/2 gal). The MgSO4 and SDS assays were conducted using molar concentrations of MgSO4 and SDS equal to that of the positively charged extractant, as well as using molar concentrations of MgSO4 and SDS diluted as compared to that of the positively charged extractant.
Depending on the substance being tested, sanitizer, neutralizer (i.e., Tween® 20, MgSO4 or SDS), ATP solution, luciferin/luciferase cocktail, extractant and/or benzalkonium chloride (in various combinations) were placed in a cuvette and light intensity was read. Each sanitizer was run in duplicate. A control tube containing buffer and ATP was also run. Light output was measured in a Monolight 3010 luminometer. Each experiment was conducted in total volume of 0.42 ml in the curvette.

Each structure is given as a SMILES string.

luciferase, sequence (P08659 whole entry, species assumed): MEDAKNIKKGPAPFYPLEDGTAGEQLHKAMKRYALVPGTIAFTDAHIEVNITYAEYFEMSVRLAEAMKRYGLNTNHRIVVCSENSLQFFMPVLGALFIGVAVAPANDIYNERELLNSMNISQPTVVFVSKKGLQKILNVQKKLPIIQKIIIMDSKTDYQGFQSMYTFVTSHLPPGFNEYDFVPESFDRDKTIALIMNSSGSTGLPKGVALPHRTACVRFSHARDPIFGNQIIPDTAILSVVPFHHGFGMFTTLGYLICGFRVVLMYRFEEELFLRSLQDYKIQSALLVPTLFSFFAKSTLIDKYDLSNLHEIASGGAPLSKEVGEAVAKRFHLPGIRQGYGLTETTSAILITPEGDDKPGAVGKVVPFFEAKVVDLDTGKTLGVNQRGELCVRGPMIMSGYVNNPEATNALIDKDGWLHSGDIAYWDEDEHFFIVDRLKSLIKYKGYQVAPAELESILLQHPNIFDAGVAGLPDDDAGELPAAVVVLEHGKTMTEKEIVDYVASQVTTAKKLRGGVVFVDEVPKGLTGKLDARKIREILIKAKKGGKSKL

With `CCCCCCCCCCCCOS(=O)(=O)[O-].[Na+]` [SDS, sodium dodecyl sulfate], the “neutralizing the inhibitory effect(s) of commonly employed extractants on the ATP-luciferin-luciferase light reaction” value was “neutralizes the inhibitory effect(s)”. Moreover, the “neutralizing the inhibitory effects of benzalkonium chloride” value (diluted 1:2 or more compared with the extractant, FIGS. 4A-4C) is reported as “effective in neutralizing the inhibitory effects of benzalkonium chloride”. Also, for the setting “FIGS. 4A-4C”, the “effect on light intensity” value is listed as “did not affect (inhibit) light intensity”. In addition, for the setting “equal concentrations of neutralizer and positively charged extractant, FIG. 3”, the “effect on the light reaction” value was “not effective and inhibited the light reaction”. Also, the “effect on the light reaction at too high a concentration” value (present at too high a concentration) is listed as “completely eliminate the light reaction”.

Regarding `O=S(=O)([O-])[O-].[Mg+2]` [MgSO4, magnesium sulfate], the “neutralizing the inhibitory effect(s) of commonly employed extractants on the ATP-luciferin-luciferase light reaction” value is “more effective than Tween® 20”. Besides, the “effect on light intensity” value (FIGS. 4A-4C) is recorded as “increased light intensity over the undiluted MgSO4”. In addition, the “performance as neutralizer compared with SDS (intensity of light)” value (equal concentrations of neutralizer and extractant, with sanitizer, with extractant and alone, FIG. 3) is listed as “performed better than SDS in all assays”. Under “equal concentrations of neutralizer and positively charged extractant (benzalkonium chloride), various sanitizers, FIGS. 1 and 2”, the “performance as neutralizer compared with Tween 20 (intensity of light)” value is on record as “performed better than Tween® 20 as a neutralizer for all sanitizers except one”. For the same compound, the “neutralizing the effects of sanitizer” value (extractant, sanitizer and ATP-luciferin-luciferase solution, FIGS. 6A, 6B) is recorded as “works at least as well and, in most cases, better than Tween® 20”.
